According to PubChem BioAssay (NCI):
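Results reflect a 48-hour exposure of cells in 96-well plates to compound at five concentrations. The concentration for 50% growth inhibition is given as GI50. TGI: concentration producing complete growth inhibition.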

How the values were obtained:
Test in all cases: NCI-60 cell line screen, 48 h
KM12 colon = system: KM12 colon
U251 CNS = system: U251 CNS
HS 578T breast = system: HS 578T breast
ACHN renal = system: ACHN renal
NCI/ADR-RES ovarian = system: NCI/ADR-RES ovarian
SR leukemia = system: SR leukemia
SF-268 CNS = system: SF-268 CNS
IGROV1 ovarian = system: IGROV1 ovarian
HOP-92 NSCLC = system: HOP-92 NSCLC
EKVX NSCLC = system: EKVX NSCLC
HT29 colon = system: HT29 colon
SF-539 CNS = system: SF-539 CNS
SNB-75 CNS = system: SNB-75 CNS
SNB-19 CNS = system: SNB-19 CNS
T-47D breast = system: T-47D breast
786-0 renal = system: 786-0 renal
HOP-62 NSCLC = system: HOP-62 NSCLC
SN12C renal = system: SN12C renal
NCI-H226 lung = system: NCI-H226 lung
MCF7 breast = system: MCF7 breast
PC-3 prostate = system: PC-3 prostate
NCI-H522 lung = system: NCI-H522 lung
UACC-62 melanoma = system: UACC-62 melanoma
HCT-116 colon = system: HCT-116 colon
A498 renal = system: A498 renal
M14 melanoma = system: M14 melanoma
HCC-2998 colon = system: HCC-2998 colon
OVCAR-5 ovarian = system: OVCAR-5 ovarian
NCI-H23 lung = system: NCI-H23 lung
UACC-257 melanoma = system: UACC-257 melanoma
DU-145 prostate = system: DU-145 prostate
OVCAR-8 ovarian = system: OVCAR-8 ovarian
SK-MEL-28 melanoma = system: SK-MEL-28 melanoma
MDA-MB-231 breast = system: MDA-MB-231 breast
NCI-H460 lung = system: NCI-H460 lung
TK-10 renal = system: TK-10 renal
RPMI-8226 leukemia = system: RPMI-8226 leukemia
MOLT-4 leukemia = system: MOLT-4 leukemia
HL-60(TB) leukemia = system: HL-60(TB) leukemia
COLO 205 colon = system: COLO 205 colon
UO-31 renal = system: UO-31 renal
SK-MEL-5 melanoma = system: SK-MEL-5 melanoma
MALME-3M melanoma = system: MALME-3M melanoma
SK-MEL-2 melanoma = system: SK-MEL-2 melanoma
OVCAR-4 ovarian = system: OVCAR-4 ovarian
A549 NSCLC = system: A549 NSCLC
K-562 leukemia = system: K-562 leukemia
HCT-15 colon = system: HCT-15 colon
RXF 393 renal = system: RXF 393 renal
SK-OV-3 ovarian = system: SK-OV-3 ovarian
SW-620 colon = system: SW-620 colon
CCRF-CEM leukemia = system: CCRF-CEM leukemia
CAKI-1 renal = system: CAKI-1 renal
LOX IMVI melanoma = system: LOX IMVI melanoma
BT-549 breast = system: BT-549 breast
MDA-MB-435 = system: MDA-MB-435
SF-295 CNS = system: SF-295 CNS

## O=C(CSCC(=O)N/N=C/c1ccc(F)cc1)N/N=C/c1ccc(F)cc1
KM12 colon
  TGI: > 100 µM
U251 CNS
  TGI: > 100 µM
HS 578T breast
  TGI: > 100 µM
ACHN renal
  TGI: > 100 µM
NCI/ADR-RES ovarian
  TGI: > 100 µM
SR leukemia
  TGI: > 100 µM
SF-268 CNS
  TGI: > 100 µM
IGROV1 ovarian
  TGI: > 100 µM
HOP-92 NSCLC
  TGI: > 100 µM
EKVX NSCLC
  TGI: > 100 µM
HT29 colon
  TGI: > 100 µM
SF-539 CNS
  TGI: > 100 µM
SNB-75 CNS
  TGI: > 100 µM
SNB-19 CNS
  TGI: > 100 µM
T-47D breast
  TGI: > 100 µM
786-0 renal
  TGI: > 100 µM
HOP-62 NSCLC
  TGI: > 100 µM
SN12C renal
  TGI: > 100 µM
NCI-H226 lung
  TGI: > 100 µM
MCF7 breast
  TGI: > 100 µM
PC-3 prostate
  TGI: > 100 µM
NCI-H522 lung
  TGI: > 100 µM
UACC-62 melanoma
  TGI: > 100 µM
HCT-116 colon
  TGI: > 100 µM
A498 renal
  TGI: > 100 µM
M14 melanoma
  TGI: > 100 µM
HCC-2998 colon
  TGI: > 100 µM
OVCAR-5 ovarian
  TGI: > 100 µM
NCI-H23 lung
  TGI: > 100 µM
UACC-257 melanoma
  TGI: > 100 µM
DU-145 prostate
  TGI: > 100 µM
OVCAR-8 ovarian
  TGI: > 100 µM
SK-MEL-28 melanoma
  TGI: > 100 µM
MDA-MB-231 breast
  TGI: > 100 µM
NCI-H460 lung
  TGI: > 100 µM
TK-10 renal
  TGI: > 100 µM
RPMI-8226 leukemia
  TGI: > 100 µM
MOLT-4 leukemia
  TGI: 76.9 µM
HL-60(TB) leukemia
  TGI: > 100 µM
COLO 205 colon
  TGI: > 100 µM
UO-31 renal
  TGI: > 100 µM
SK-MEL-5 melanoma
  TGI: > 100 µM
MALME-3M melanoma
  TGI: > 100 µM
SK-MEL-2 melanoma
  TGI: > 100 µM
OVCAR-4 ovarian
  TGI: > 100 µM
A549 NSCLC
  TGI: > 100 µM
K-562 leukemia
  TGI: > 100 µM
HCT-15 colon
  TGI: > 100 µM
RXF 393 renal
  TGI: > 100 µM
SK-OV-3 ovarian
  TGI: > 100 µM
SW-620 colon
  TGI: > 100 µM

## COC(=O)C1=C(O)C(C(=O)OC)[C@@]2(O)[C@@H](C(=O)OC)C(c3ccc(OC(=O)C(Cc4ccccc4)NC(C)=O)cc3)C[C@@H]1[C@@H]2C(=O)OC (some centres undefined)
KM12 colon
  GI50: 15.3 µM
  TGI: 41.3 µM
U251 CNS
  GI50: 15.9 µM
  TGI: 32.8 µM
HS 578T breast
  GI50: 20.4 µM
  TGI: 75.3 µM
NCI/ADR-RES ovarian
  GI50: 60.7 µM
  TGI: > 100 µM
SR leukemia
  GI50: 3.35 µM
  TGI: > 100 µM
SF-268 CNS
  GI50: 21.9 µM
  TGI: 88.3 µM
IGROV1 ovarian
  GI50: 45.7 µM
  TGI: > 100 µM
HOP-92 NSCLC
  GI50: 21.4 µM
  TGI: 58.8 µM
EKVX NSCLC
  GI50: 95.7 µM
  TGI: > 100 µM
CCRF-CEM leukemia
  GI50: 32.9 µM
  TGI: > 100 µM
HT29 colon
  GI50: 15.6 µM
  TGI: 33.6 µM
SF-539 CNS
  GI50: 33.6 µM
  TGI: 73.1 µM
SNB-19 CNS
  GI50: 36.4 µM
  TGI: > 100 µM
T-47D breast
  GI50: 39.2 µM
  TGI: > 100 µM
786-0 renal
  GI50: 18.3 µM
  TGI: 43.5 µM
HOP-62 NSCLC
  GI50: 22.5 µM
  TGI: 54.3 µM
SN12C renal
  GI50: 22.6 µM
  TGI: 62.1 µM
NCI-H226 lung
  GI50: 25.5 µM
  TGI: 75.1 µM
MCF7 breast
  GI50: 17 µM
  TGI: 95.3 µM
CAKI-1 renal
  GI50: 38.7 µM
  TGI: > 100 µM
PC-3 prostate
  GI50: 27.6 µM
  TGI: 91 µM
NCI-H522 lung
  GI50: 28.3 µM
  TGI: > 100 µM
UACC-62 melanoma
  GI50: 16.1 µM
  TGI: 40.9 µM
HCT-116 colon
  GI50: 20.6 µM
  TGI: 45.1 µM
A498 renal
  GI50: 24.5 µM
  TGI: 62.9 µM
M14 melanoma
  GI50: 20.7 µM
  TGI: 47.2 µM
OVCAR-5 ovarian
  GI50: 35 µM
  TGI: 97.3 µM
NCI-H23 lung
  GI50: 19.9 µM
  TGI: 48.1 µM
UACC-257 melanoma
  GI50: 13.9 µM
  TGI: 50.5 µM
LOX IMVI melanoma
  GI50: 18 µM
  TGI: 32.2 µM
OVCAR-8 ovarian
  GI50: 23.1 µM
  TGI: 59.2 µM
MDA-MB-231 breast
  GI50: 21 µM
  TGI: 58.8 µM
NCI-H460 lung
  GI50: 20.5 µM
  TGI: > 100 µM
TK-10 renal
  GI50: 18.5 µM
  TGI: 44.1 µM
RPMI-8226 leukemia
  GI50: 20.6 µM
  TGI: 71.4 µM
MOLT-4 leukemia
  GI50: 14.8 µM
  TGI: 46.4 µM
COLO 205 colon
  GI50: 27.9 µM
  TGI: > 100 µM
BT-549 breast
  GI50: 38 µM
  TGI: > 100 µM
UO-31 renal
  GI50: 35.7 µM
  TGI: > 100 µM
SK-MEL-5 melanoma
  GI50: 18 µM
  TGI: 39.3 µM
MDA-MB-435
  GI50: 23.5 µM
  TGI: 50.2 µM
SK-MEL-2 melanoma
  GI50: 47.4 µM
  TGI: > 100 µM
A549 NSCLC
  GI50: 20.6 µM
  TGI: 57.5 µM
K-562 leukemia
  GI50: 19.1 µM
  TGI: > 100 µM
HCT-15 colon
  GI50: 13.3 µM
  TGI: 28.4 µM
RXF 393 renal
  GI50: 25.4 µM
  TGI: 51.2 µM
SK-OV-3 ovarian
  GI50: 37.5 µM
  TGI: > 100 µM
SF-295 CNS
  GI50: 32.8 µM
  TGI: 69.3 µM
SW-620 colon
  GI50: 29.7 µM
  TGI: > 100 µM
